This is an account of results in publication PMC5602538, “Assessment of the Drug Interaction Potential of Unconjugated and GalNAc3-Conjugated 2′-MOE-ASOs” (Molecular Therapy. Nucleic Acids, 2017).

Series [1] concerns BCRP. As to conditions: Ko143 1 μM, 2 μM prazosin.
For series [2], the target named is T1, CYP2C8 (Homo sapiens, UniProt P10632).
T1 sequence (P10632 1-490): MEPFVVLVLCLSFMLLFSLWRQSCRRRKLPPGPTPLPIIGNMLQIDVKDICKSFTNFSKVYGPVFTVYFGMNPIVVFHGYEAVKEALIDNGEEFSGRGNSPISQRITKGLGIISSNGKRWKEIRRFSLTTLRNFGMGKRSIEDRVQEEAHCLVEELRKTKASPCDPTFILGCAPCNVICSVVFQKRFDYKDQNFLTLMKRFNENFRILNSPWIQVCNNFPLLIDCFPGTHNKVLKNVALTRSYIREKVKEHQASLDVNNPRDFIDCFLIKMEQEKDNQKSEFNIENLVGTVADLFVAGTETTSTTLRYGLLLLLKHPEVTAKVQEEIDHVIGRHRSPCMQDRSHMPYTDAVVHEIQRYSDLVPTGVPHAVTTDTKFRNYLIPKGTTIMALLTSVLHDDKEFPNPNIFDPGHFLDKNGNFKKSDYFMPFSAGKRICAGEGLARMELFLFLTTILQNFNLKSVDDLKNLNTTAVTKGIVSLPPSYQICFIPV
As to conditions: hepatocytes.
Description: Preincubations were performed in 50 μL of Williams’ Medium E with 2 mM salicylamide. The salicylamide was included to reduce possible phase II conjugation to the precursor phase I metabolites. […] Human hepatocytes (pooled from 5 donors) were thawed and prepared according to the vendor’s protocol. […] Incubations were carried out at 37°C with 5% CO2. The incubation time was 45 min for phenacetin, diclofenac, dextromethorphan, midazolam, bupropion, chlorzoxazone, and testosterone and 90 min for paclitaxel and (S)-mephenytoin. The reactions were stopped by adding 200 μL of ice-cold acetonitrile (can) with tolbutamide (100 ng/mL) as the internal standard to 100 μL of hepatocyte suspension (1:2, v/v). The 96-well plate was then vortexed at 1,700 rpm for 3 min and centrifuged at 3,500 rpm for 10 min at 20°C. The supernatants were analyzed using liquid chromatography-tandem MS (LC-MS/MS).

Series [3] relates to CYP1A2. Nature of the series: CYP1A2 enzyme activity induction in plated human hepatocytes. The note with it: human, probe phenacetin, 100 μM. The procedure: (§1) Upon receipt, sandwich-cultured cryopreserved human hepatocytes (with Matrigel) plated on collagen-coated 24-well plates were inspected under a microscope for general morphology and viability. Fresh culture medium (OptiCulture Hepatocyte Media) was added to each plate that passed the visual inspection. The plates were then placed in an incubator set to 37°C with 5% carbon dioxide (CO2) for overnight acclimation. […] During this time, cells in parallel wells were also treated with 50.0 μM omeprazole (inducer of CYP1A2), 1,000 μM phenobarbital (inducer of CYP2B6), or 10.0 μM rifampicin (inducer of CYP3A4) in triplicate, respectively.
(§2) The plates were then incubated at 37°C with 5% CO2 for 60 min. […] Aliquots of the supernatants were analyzed by LC-MS/MS for the formation of acetaminophen, hydroxyl-bupropion, or hydroxyl-midazolam as markers for enzyme activity of CYP1A2, CYP2B6, and CYP3A4, respectively.
(§3) The activity of each CYP enzyme was measured by comparing the peak area ratio of the corresponding product to the peak area ratio of the internal standard. The fold induction was calculated by dividing the peak area ratio of each individual well from the treatment group by the mean of the peak area ratios obtained from the vehicle control wells. […] The ΔCƬ was calculated as follows: ΔCƬ = CƬ (CYP) − CƬ (GAPDH). […] The ΔΔCƬ was calculated as follows: ΔΔCƬ = Δ CƬ (Treatment) − Δ CƬ (Vehicle). […]

The subject of series [4] is CYP1A2 mRNA. As to the kind of experiment: in vitro. As to conditions: human. The procedure: as §1
(§4) After collection of the supernatant for catalytic analysis, the remaining cells were washed and lysed with QIAGEN Buffer RLT from the QIAGEN RNeasy Kit. […]
(§5) The activity of each CYP enzyme was measured by comparing the peak area ratio of the corresponding product to the peak area ratio of the internal standard. The fold induction was calculated by dividing the peak area ratio of each individual well from the treatment group by the mean of the peak area ratios obtained from the vehicle control wells. […] The ΔCƬ was calculated as follows: ΔCƬ = CƬ (CYP) − CƬ (GAPDH). […] The ΔΔCƬ was calculated as follows: ΔΔCƬ = Δ CƬ (Treatment) − Δ CƬ (Vehicle). The fold induction of the target CYP was calculated using the following equation: Fold=2^-ΔΔCT.

Series [5] deals with CYP2B6. Nature of the series: CYP2B6 enzyme activity induction in plated human hepatocytes. The note with it: human. The method, then:
as §1, §2, §3

For series [6], the system named is CYP2B6 mRNA. As to the kind of experiment: CYP2B6 mRNA induction in plated human hepatocytes. As to conditions: human. The procedure: as §1, §4, §5
Series [7] concerns T2, OAT3.
T2 construct: expressed in transfected cells; host or cells: MDCK-II
As to the kind of experiment: OAT3 inhibition study in MDCK cells. The series is classed as in vitro ADME. The note with it: MDCK-II cell monolayer expressing OAT3, probe [3H]-p-aminohippurate; probenecid 100 μM, 10 μM p-aminohippurate; read-out: % inhibition of OAT3-mediated transport of p-aminohippurate, reference inhibitor. The method, then: A 96-well cell culture plate containing a monolayer of MDCK-II cells grown on a permeable support and a corresponding receiver tray was used. The basolateral compartment of the culture plate and wells were washed with warm HBSS three times, with wells of the culture plate serving as the apical compartment. The wash was aspirated by adding 150 μL of 37°C HBSS to both compartments. […] The pre-incubation buffer from both compartments was aspirated and 150 μL of the following was added to the basal compartment. […] OATP1B1, 2 μM [^3H]-estradiol-17 β-D-glucuronide; and OATP1B3, 2 μM [^3H]-cholecystokinin octapeptide (CCK-8). […] Plates were incubated at 37°C with orbital shaking at 60 rpm for 5 min. Both sides of the permeable support were washed four times with ice-cold PBS and 60 μL of cell extraction solution was added to each well. Plates were agitated for 15 min at 120 rpm, after which a 30-μL sample of the extract was collected. […] Test article concentrations, including control samples, were evaluated by an LC-MS method. Signal to noise for probe substrates was calculated by dividing the uptake of the probe substrate in transporter-expressing cells by the uptake of probe substrate in control cells not expressing the transporter of interest.

Series [8] relates to T3, OCT1.
T3 construct: expressed in transfected cells; host or cells: MDCK-II
As to the kind of experiment: OCT1 inhibition study in MDCK cells. The format is in vitro ADME. The note with it: MDCK-II cell monolayer expressing OCT1, probe [3H]-MPP+, 2 μM; read-out: % inhibition of OCT1-mediated transport of MPP+, reference inhibitor. The method, then: (§6) A 96-well cell culture plate containing a monolayer of MDCK-II cells grown on a permeable support and a corresponding receiver tray was used. The basolateral compartment of the culture plate and wells were washed with warm HBSS three times, with wells of the culture plate serving as the apical compartment. The wash was aspirated by adding 150 μL of 37°C HBSS to both compartments. Plates were incubated at 37°C with orbital shaking at 60 rpm for 15 min for OAT1, OAT3, OCT1, OCT2, OATP1B1, and OATP1B3 (±5 min). The pre-incubation buffer from both compartments was aspirated and 150 μL of the following was added to the basal compartment. […] Test article concentrations, including control samples, were evaluated by an LC-MS method.
(§7) Signal to noise for probe substrates was calculated by dividing the uptake of the probe substrate in transporter-expressing cells by the uptake of probe substrate in control cells not expressing the transporter of interest. Percent inhibition was calculated by dividing the net-transporter-mediated substrate uptake in the presence of the test article or the reference inhibitor by the net-transporter-mediated substrate uptake in the absence of the inhibitor according to the equation: %inhibition=100−(100×(transporter-mediateduptake)withinhibitor/(transporter-mediateduptake)withoutinhibitor).

Series [9] has as its system T4, OCT2.
T4 construct: expressed in transfected cells; host or cells: MDCK-II
As to the kind of experiment: OCT2 inhibition study in MDCK cells. The series is classed as in vitro ADME. The note with it: MDCK-II cell monolayer expressing OCT2, probe [14C]-metformin, 10 μM; read-out: % inhibition of OCT2-mediated transport of metformin, reference inhibitor. The procedure: as §6, §7

In series [10] the test system is T5, OATP1B1.
T5 construct: expressed in transfected cells; host or cells: MDCK-II
Nature of the series: OATP1B1 inhibition study in MDCK cells. The format is in vitro ADME. The note with it: MDCK-II cell monolayer expressing OATP1B1, probe [3H]-estradiol-17β-D-glucuronide; rifampicin 100 μM, 2 μM substrate; read-out: % inhibition of OATP1B1-mediated transport of estradiol-17β-D-glucuronide, reference inhibitor. The procedure: as §6, §7

The subject of series [11] is T6, OATP1B3.
T6 construct: expressed in transfected cells; host or cells: MDCK-II
Nature of the series: OATP1B3 inhibition study in MDCK cells. The format is in vitro ADME. The note with it: MDCK-II cell monolayer expressing OATP1B3, probe [3H]-cholecystokinin octapeptide (CCK-8); rifampicin 100 μM, 2 μM CCK-8; read-out: % inhibition of OATP1B3-mediated transport of CCK-8, reference inhibitor. The procedure:
A 96-well cell culture plate containing a monolayer of MDCK-II cells grown on a permeable support and a corresponding receiver tray was used. The basolateral compartment of the culture plate and wells were washed with warm HBSS three times, with wells of the culture plate serving as the apical compartment. The wash was aspirated by adding 150 μL of 37°C HBSS to both compartments. Plates were incubated at 37°C with orbital shaking at 60 rpm for 15 min for OAT1, OAT3, OCT1, OCT2, OATP1B1, and OATP1B3 (±5 min). The pre-incubation buffer from both compartments was aspirated and 150 μL of the following was added to the basal compartment. […] Samples containing probe substrate were added to 200 μL of scintillation fluid and counted on a 1450 Microbeta (PerkinElmer), whereas samples containing the test article were kept frozen. Test article concentrations, including control samples, were evaluated by an LC-MS method.
Signal to noise for probe substrates was calculated by dividing the uptake of the probe substrate in transporter-expressing cells by the uptake of probe substrate in control cells not expressing the transporter of interest. […]

In general, IC50 refers to the concentration needed to halve the response being measured. The low end stands for inhibition by little substance, the high end for a need for much substance. As usually defined, the fold induction is the signal under treatment as a multiple of the control signal. By inhibition is commonly meant the percentage by which the read-out fell short of the control.

Structures are written as SMILES.

As for `COc1ccc2c3c([nH]c2c1)[C@H](CC(C)C)N1C(=O)[C@H](CCC(=O)OC(C)(C)C)NC(=O)[C@@H]1C3` [Ko143], the “% inhibition of BCRP-mediated transport of prazosin, reference inhibitor” value in series [1] turned out to be 90.4 ± 1.89%.
Consider `Cc1ccc(C)c(OCCCC(C)(C)C(=O)O[C@@H]2O[C@H](C(=O)O)[C@@H](O)[C@H](O)[C@H]2O)c1` [gemfibrozil glucuronide, reference compound], for which the IC50 in series [2] amounted to 960 nM.
As for `COc1ccc2[nH]c([S+]([O-])Cc3ncc(C)c(OC)c3C)nc2c1` (centres unmarked) [omeprazole, reference compound], the fold induction at 72 h, 50 μM in series [3] worked out at 50.6 ± 3.78; in series [4], 45.7 ± 4.51.
Take `CCC1(c2ccccc2)C(=O)NC(=O)NC1=O` [phenobarbital, reference compound]: the results for the fold induction at 72 h, 1000 μM in [5] and in series [6] were 5.03 ± 1.06 and 9.83 ± 0.992, respectively.
With `CCCN(CCC)S(=O)(=O)c1ccc(C(=O)O)cc1` [probenecid, reference compound], the inhibition at 5 min, 100 μM in series [7] was no more than 98.3%.
On to `C=C[C@H]1C[N@@]2CC[C@H]1C[C@@H]2[C@@H](O)c1ccnc2ccc(OC)cc12` [quinidine], for which the inhibition at 5 min, 1000 μM in [8] was found to be 91.2 ± 1.57%; in [9], 98.5 ± 1.34%.
Turning to `CO[C@H]1/C=C/O[C@@]2(C)Oc3c(C)c(O)c4c(O)c(c(/C=N/N5CCN(C)CC5)c(O)c4c3C2=O)NC(=O)/C(C)=C\C=C\[C@H](C)[C@H](O)[C@@H](C)[C@@H](O)[C@@H](C)[C@H](OC(C)=O)[C@@H]1C` [rifampicin, reference compound], the inhibition at 5 min, 100 μM came out at 98.8 ± 1.09% in [10] and 99 ± 0.955% in [11].
